Assays:
Melanocortin receptor 4 [1] = biological target: T1, Melanocortin receptor 4 (Homo sapiens, UniProt P32245); test: Displacement of [125I]NDP-MSH from human MC4R expressed in HEK293 cells; type: cell-based
[2] = Volume of distribution in mouse at 5 mg/kg, iv; type: ADME, organism-based; set-up: dose 5 mg/kg, route intravenous; conditions: in vivo, read-out: Vdss
[3] = Bioavailability in mouse at 10 mg/kg, po; type: ADME, organism-based; conditions: in vivo
[4] = Lipophilicity, Log D of the compound; type: physicochemical; conditions: octanol/water
Mus musculus [5] = test: AUC in mouse at 10 mg/kg, po; type: ADME, organism-based, Plasma; set-up: dose 10 mg/kg, route oral; conditions: in vivo
[6] = Cmax in mouse at 10 mg/kg, po; type: ADME, organism-based; set-up: dose 10 mg/kg, route oral; conditions: in vivo
[7] = Tmax in mouse at 10 mg/kg, po; type: ADME, organism-based; set-up: dose 10 mg/kg, route oral; conditions: in vivo
[8] = Drug level in mouse brain after 1 hr at 5 mg/kg, iv; type: ADME, organism-based; set-up: dose 5 mg/kg, route intravenous; conditions: read-out: Drug uptake
[9] = Drug level in mouse brain after 4 hrs at 5 mg/kg, iv; type: ADME, organism-based; set-up: dose 5 mg/kg, route intravenous; conditions: read-out: Drug uptake
[10] = Ratio of drug level in brain against plasma in mouse after 4 hrs at 5 mg/kg, iv; type: ADME, organism-based; set-up: dose 5 mg/kg, route intravenous; conditions: read-out: BPR
[11] = Half life in mouse at 5 mg/kg, iv; type: ADME, organism-based; set-up: dose 5 mg/kg, route intravenous; conditions: in vivo
[12] = Ratio of drug level in brain against plasma in mouse after 1 hr at 5 mg/kg, iv; type: ADME, organism-based; set-up: dose 5 mg/kg, route intravenous; conditions: read-out: BPR
[13] = biological target: Melanocyte-stimulating hormone receptor (Homo sapiens) (UniProt Q01726); test: Inhibition of [125I]NDP-MSH binding to human MC1R expressed in HEK293 cells; type: cell-based; conditions: concentration not given here
Melanocyte-stimulating hormone receptor (Homo sapiens), sequence (Q01726 whole entry, looked up): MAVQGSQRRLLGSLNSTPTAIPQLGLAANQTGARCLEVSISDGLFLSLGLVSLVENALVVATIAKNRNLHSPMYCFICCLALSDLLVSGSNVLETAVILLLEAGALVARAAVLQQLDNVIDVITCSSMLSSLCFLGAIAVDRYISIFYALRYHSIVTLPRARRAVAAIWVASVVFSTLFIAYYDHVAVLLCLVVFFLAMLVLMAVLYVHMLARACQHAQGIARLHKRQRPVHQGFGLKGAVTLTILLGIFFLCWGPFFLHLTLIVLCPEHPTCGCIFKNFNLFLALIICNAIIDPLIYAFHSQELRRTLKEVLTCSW

Melanocortin receptor 3 = Melanocortin receptor 3 (Homo sapiens, UniProt P41968); test: Displacement of [125I]NDP-MSH from human MC3R expressed in HEK293 cells; type: cell-based
Melanocortin receptor 3, sequence (P41968 whole entry): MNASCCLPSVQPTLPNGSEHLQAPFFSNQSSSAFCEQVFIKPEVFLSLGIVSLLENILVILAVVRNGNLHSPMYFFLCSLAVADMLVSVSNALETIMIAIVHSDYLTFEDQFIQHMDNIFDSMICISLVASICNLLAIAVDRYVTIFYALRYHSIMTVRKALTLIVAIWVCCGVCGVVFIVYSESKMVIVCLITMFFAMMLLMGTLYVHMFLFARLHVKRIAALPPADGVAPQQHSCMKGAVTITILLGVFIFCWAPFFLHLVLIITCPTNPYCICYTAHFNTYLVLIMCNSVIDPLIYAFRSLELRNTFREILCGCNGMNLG

Melanocortin receptor 5 = Melanocortin receptor 5 (Homo sapiens, UniProt P33032); test: Displacement of [125I]NDP-MSH from human MC5R expressed in HEK293 cells; type: cell-based
Melanocortin receptor 5, sequence (P33032 whole entry): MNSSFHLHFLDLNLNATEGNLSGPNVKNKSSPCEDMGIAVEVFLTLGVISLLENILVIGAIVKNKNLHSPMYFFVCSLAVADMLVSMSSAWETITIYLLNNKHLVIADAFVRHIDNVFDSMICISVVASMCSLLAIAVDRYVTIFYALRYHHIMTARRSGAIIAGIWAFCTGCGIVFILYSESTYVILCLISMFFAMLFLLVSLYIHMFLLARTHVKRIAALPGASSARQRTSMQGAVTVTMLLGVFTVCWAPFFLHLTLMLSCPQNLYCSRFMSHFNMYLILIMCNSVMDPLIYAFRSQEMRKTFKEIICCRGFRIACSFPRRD

[14] = Clearance in mouse at 5 mg/kg, iv; type: ADME, organism-based; set-up: dose 5 mg/kg, route intravenous; conditions: in vivo
Mus musculus [15] = test: AUC in mouse at 5 mg/kg, iv; type: ADME, organism-based, Plasma; set-up: dose 5 mg/kg, route intravenous; conditions: in vivo
Melanocortin receptor 4 [16] = biological target: T1, Melanocortin receptor 4; test: Activity at MC4R assessed as inhibition of alpha-MSH-stimulated cAMP production; type: functional
[17] = biological target: Melanocortin receptor (M4 and M5) (Homo sapiens) (UniProt P32245+P33032); test: Selectivity for MC4R over MC5R; type: protein assay
Melanocortin receptor (M4 and M5) (Homo sapiens), sequence (P32245 whole entry, looked up): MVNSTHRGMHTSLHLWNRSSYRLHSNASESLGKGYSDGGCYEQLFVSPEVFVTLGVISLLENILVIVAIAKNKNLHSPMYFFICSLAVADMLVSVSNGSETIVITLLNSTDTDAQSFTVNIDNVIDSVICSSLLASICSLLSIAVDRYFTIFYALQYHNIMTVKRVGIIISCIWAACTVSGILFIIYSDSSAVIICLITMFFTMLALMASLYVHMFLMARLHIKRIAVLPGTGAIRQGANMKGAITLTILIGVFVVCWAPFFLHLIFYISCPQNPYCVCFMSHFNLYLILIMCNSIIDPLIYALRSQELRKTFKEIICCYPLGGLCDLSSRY
Melanocortin receptor (M4 and M5) (Homo sapiens), sequence (P33032 whole entry, looked up): as the sequence (P33032 whole entry) above

T1 sequence (P32245 whole entry): as the sequence (P32245 whole entry, looked up) above

Row | SMILES | Ki (Melanocortin receptor 4 [1]) [µM] | also measured
1 | COc1cc(OC)c(OC)cc1CCC(=O)N1CCN(c2ccc(C(F)(F)F)cc2[C@@H](N)CC(C)C)CC1 | 6.1 | –
2 | CCC(C)[C@H](NCc1ccccc1)c1cc(C(F)(F)F)ccc1N1CCN(C(=O)CCc2ccc(Cl)cc2Cl)CC1 (stereo not given in full) | 5.9 | –
3 | CCC(C)[C@H](NCc1ccccc1F)c1cc(C(F)(F)F)ccc1N1CCN(C(=O)CCc2ccc(Cl)cc2Cl)CC1 (stereo not given in full) | > 10 | –
4 | CC(C)C[C@H](N)c1cc(C(F)(F)F)ccc1N1CCN(C(=O)CCc2cn(C)c3ccccc23)CC1 | 3 | –
5 | CN[C@@H](CC(C)C)c1cc(C(F)(F)F)ccc1N1CCN(C(=O)CCc2ccc(Cl)cc2Cl)CC1 | 1.9 | –
6 | CCC(C)CN[C@H](c1cc(C(F)(F)F)ccc1N1CCN(C(=O)CCc2ccc(Cl)cc2Cl)CC1)C(C)CC (stereo not given in full) | 2.8 | –
7 | CCOCC(N)c1cc(F)ccc1N1CCN(C(=O)CCc2ccc(Cl)cc2Cl)CC1 (stereo not given) | 0.69 | –
8 | CC(C)C[C@H](N)c1cc(C(F)(F)F)ccc1N1CCN(C(=O)CCc2ccc(S(C)(=O)=O)cc2)CC1 | 4.9 | –
9 | CCC(C)[C@H](NCCc1ccccc1)c1cc(C(F)(F)F)ccc1N1CCN(C(=O)CCc2ccc(Cl)cc2Cl)CC1 (stereo not given in full) | 2.6 | –
10 | CC(C)C[C@H](N)c1cc(C(F)(F)F)ccc1N1CCN(C(=O)CCc2ccc3c(c2)OCO3)CC1 | 1.5 | –
11 | NC(COCc1ccccc1)c1cc(F)ccc1N1CCN(C(=O)CCc2ccc(Cl)cc2Cl)CC1 (stereo not given) | 1 | –
12 | CC(C)C[C@H](N)c1cc(C(F)(F)F)ccc1N1CCN(C(=O)CCc2ccccc2Cl)CC1 | 1.7 | –
13 | CC(C)C[C@H](N)c1cc(C(F)(F)F)ccc1N1CCN(C(=O)CCc2csc3ccccc23)CC1 | 2.3 | –
14 | CC(C)C[C@H](N)c1cc(C(F)(F)F)ccc1N1CCN(C(=O)CCc2ccccc2O)CC1 | 3.3 | –
15 | CC(C)C[C@H](N)c1cc(C(F)(F)F)ccc1N1CCN(C(=O)CCc2cccc(C(F)(F)F)c2)CC1 | 2.2 | –
16 | COc1ccc(OC)c(CCC(=O)N2CCN(c3ccc(C(F)(F)F)cc3[C@@H](N)CC(C)C)CC2)c1 | 2.5 | –

Row | SMILES | Ki (Melanocortin receptor 4 [1]) [µM] | also measured
17 | COCCN[C@@H](CC(C)C)c1cc(C(F)(F)F)ccc1N1CCN(C(=O)CCc2ccc(Cl)cc2Cl)CC1 | 0.62 | –
18 | COc1ccccc1CCC(=O)N1CCN(c2ccc(C(F)(F)F)cc2[C@@H](N)CC(C)C)CC1 | 1.4 | –
19 | Cc1cccc(CCC(=O)N2CCN(c3ccc(C(F)(F)F)cc3[C@@H](N)CC(C)C)CC2)c1 | 2.1 | –
20 | CCC(C)[C@H](NS(C)(=O)=O)c1cc(C(F)(F)F)ccc1N1CCN(C(=O)CCc2ccc(Cl)cc2Cl)CC1 (stereo not given in full) | 1.8 | –
21 | CC(C)C[C@H](N)c1cc(C(F)(F)F)ccc1N1CCN(C(=O)CCc2cccs2)CC1 | 4.6 | –
22 | COc1ccc(CCC(=O)N2CCN(c3ccc(C(F)(F)F)cc3[C@@H](N)CC(C)C)CC2)cc1OC | 4.3 | –
23 | COc1cccc(CCC(=O)N2CCN(c3ccc(C(F)(F)F)cc3[C@@H](N)CC(C)C)CC2)c1 | 4 | –
24 | CC(C)C[C@H](N)c1cc(C(F)(F)F)ccc1N1CCN(C(=O)CCc2ccccc2F)CC1 | 2.8 | –
25 | CCC(C)[C@H](NCC1CCCO1)c1cc(C(F)(F)F)ccc1N1CCN(C(=O)CCc2ccc(Cl)cc2Cl)CC1 (stereo not given in full) | 0.78 | –
26 | CC(C)C[C@H](N)c1cc(C(F)(F)F)ccc1N1CCN(C(=O)CCc2c(Cl)cccc2Cl)CC1 | 2.6 | –
27 | Cc1[nH]c2ccccc2c1CCC(=O)N1CCN(c2ccc(C(F)(F)F)cc2[C@@H](N)CC(C)C)CC1 | 1.6 | –
28 | CC(C)C[C@H](N)c1cc(C(F)(F)F)ccc1N1CCN(C(=O)CCc2c[nH]c3ccccc23)CC1 | 0.64 | –
29 | CC(C)C[C@H](N)c1cc(C(F)(F)F)ccc1N1CCN(C(=O)CCc2ccc(O)cc2)CC1 | > 10 | –
30 | CCC(C)[C@H](N)c1cc(C(F)(F)F)ccc1N1CCN(C(=O)CCc2ccc(OC)c(OC)c2Cl)CC1 (stereo not given in full) | 2.5 | –
31 | CCC(C)[C@H](NC(=O)OC)c1cc(C(F)(F)F)ccc1N1CCN(C(=O)CCc2ccc(Cl)cc2Cl)CC1 (stereo not given in full) | 2.4 | –

Now those with a lower Ki (Melanocortin receptor 4 [1]), led by results:

Row | Ki (Melanocortin receptor 4 [1]) [µM] | SMILES | also measured
32 | 0.49 | CC(N)c1cc(C(F)(F)F)ccc1N1CCN(C(=O)CCc2ccc(Cl)cc2Cl)CC1 (stereo not given) | –
33 | 0.4 | NCCNC(COCc1ccccc1)c1cc(F)ccc1N1CCN(C(=O)CCc2ccc(Cl)cc2Cl)CC1 (stereo not given) | –
34 | 0.36 | CCC(C)[C@H](NC(C)=O)c1cc(C(F)(F)F)ccc1N1CCN(C(=O)CCc2ccc(Cl)cc2Cl)CC1 (stereo not given in full) | –
35 | 0.35 | COc1ccc(CCC(=O)N2CCN(c3ccc(C(F)(F)F)cc3[C@@H](N)CC(C)C)CC2)cc1 | –
36 | 0.3 | CCOCC(NC(=O)CCN)c1cc(F)ccc1N1CCN(C(=O)CCc2ccc(Cl)cc2Cl)CC1 (stereo not given) | –
37 | 0.21 | NCCC(=O)NC(COCc1ccccc1)c1cc(F)ccc1N1CCN(C(=O)CCc2ccc(Cl)cc2Cl)CC1 (stereo not given) | –
38 | 0.19 | CCCCC(N)c1cc(C(F)(F)F)ccc1N1CCN(C(=O)CCc2ccc(Cl)cc2Cl)CC1 (stereo not given) | –
39 | 0.17 | CCN[C@@H](CC(C)C)c1cc(C(F)(F)F)ccc1N1CCN(C(=O)CCc2ccc(Cl)cc2Cl)CC1 | –
40 | 0.16 | CCC(C)C(N)c1cc(C(F)(F)F)ccc1N1CCN(C(=O)CCc2ccc(Cl)cc2Cl)CC1 (stereo not given) | –
41 | 0.14 | CC(C)C(N)c1cc(C(F)(F)F)ccc1N1CCN(C(=O)CCc2ccc(Cl)cc2Cl)CC1 (stereo not given) | –
42 | 0.11 | CC(C)C[C@H](N)c1cccc(F)c1N1CCN(C(=O)CCc2ccc(Cl)cc2Cl)CC1 | inhibition [13]: 21%; Ki (Melanocortin receptor 3): 1.4 µM; Ki (Melanocortin receptor 5): 1.2 µM
43 | 0.11 | CCC(C)[C@H](NC[C@H]1CCCN1)c1cc(C(F)(F)F)ccc1N1CCN(C(=O)CCc2ccc(Cl)cc2Cl)CC1 (stereo not given in full) | –
44 | 0.094 | CC(C)C[C@H](N)c1cc(F)ccc1N1CCN(C(=O)CCc2ccc(Cl)cc2Cl)CC1 | –
45 | 0.092 | CCN[C@H](c1cc(C(F)(F)F)ccc1N1CCN(C(=O)CCc2ccc(Cl)cc2Cl)CC1)C(C)CC (stereo not given in full) | –
46 | 0.089 | CCC(C)[C@H](NC[C@H](C)N)c1cc(C(F)(F)F)ccc1N1CCN(C(=O)CCc2ccc(Cl)cc2Cl)CC1 (stereo not given in full) | –
47 | 0.086 | CCC(C)[C@H](N)c1cc(C(F)(F)F)ccc1N1CCN(C(=O)CCc2ccc(Cl)cc2)CC1 (stereo not given in full) | –
48 | 0.075 | CC[C@H](C)C(N)c1cc(C(F)(F)F)ccc1N1CCN(C(=O)CCc2ccc(Cl)cc2Cl)CC1 (stereo not given in full) | –
49 | 0.074 | CC(C)C[C@H](N)c1cc(C(F)(F)F)ccc1N1CCN(C(=O)CCc2ccc(Cl)cc2Cl)CC1 | –
50 | 0.064 | CCC(C)[C@H](NC[C@@H]1CCCN1)c1cc(C(F)(F)F)ccc1N1CCN(C(=O)CCc2ccc(Cl)cc2Cl)CC1 (stereo not given in full) | –
51 | 0.057 | CCC(C)[C@H](N)c1cc(C(F)(F)F)ccc1N1CCN(C(=O)CCc2ccc(OC)cc2Cl)CC1 (stereo not given in full) | –
52 | 0.056 | CCC(C)[C@H](NCCN)c1cc(C(F)(F)F)ccc1N1CCN(C(=O)CCc2ccc(Cl)cc2Cl)CC1 (stereo not given in full) | –
53 | 0.03 | CCC(C)[C@H](NCCCN)c1cc(C(F)(F)F)ccc1N1CCN(C(=O)CCc2ccc(Cl)cc2Cl)CC1 (stereo not given in full) | –
54 | 0.025 | CC(C)C[C@H](NC(=O)CCN)c1cc(C(F)(F)F)ccc1N1CCN(C(=O)CCc2ccc(Cl)cc2Cl)CC1 | –
55 | 0.019 | CC(C)C[C@H](NC(=O)CN)c1cc(C(F)(F)F)ccc1N1CCN(C(=O)CCc2ccc(Cl)cc2Cl)CC1 | Vd [2]: 8.8 L/kg; bioavailability [3]: 11.2%; logD [4]: 4.5; AUC (Mus musculus [5]): 687 ng·h/mL; Cmax [6]: 115 ng/mL; Tmax [7]: 2 h; concentration at 1 h [8]: 43 ng/g; concentration at 4 h [9]: 33 ng/g; Kp at 4 h [10]: 0.17; half-life [11]: 3.8 h; Kp at 1 h [12]: 0.08; inhibition [13]: 18%; Ki (Melanocortin receptor 3): 1.2 µM; Ki (Melanocortin receptor 5): 0.5 µM; clearance [14]: 26.9 mL/min/kg; AUC (Mus musculus [15]): 3070 ng·h/mL; IC50 (Melanocortin receptor 4 [16]): 1.3 µM; Selectivity ratio [17]: > 25
56 | 0.018 | CCC(C)[C@H](NC(=O)CN)c1cc(C(F)(F)F)ccc1N1CCN(C(=O)CCc2ccc(Cl)cc2Cl)CC1 (stereo not given in full) | –
57 | 0.013 | CCC(C)[C@H](NC(=O)CCN)c1cc(C(F)(F)F)ccc1N1CCN(C(=O)CCc2ccc(Cl)cc2Cl)CC1 (stereo not given in full) | Vd [2]: 1.6 L/kg; bioavailability [3]: 26.1%; logD [4]: 4; AUC (Mus musculus [5]): 12100 ng·h/mL; Cmax [6]: 1170 ng/mL; Tmax [7]: 6 h; concentration at 1 h [8]: 62 ng/g; concentration at 4 h [9]: 70 ng/g; Kp at 4 h [10]: 0.03; half-life [11]: 5.2 h; Kp at 1 h [12]: 0.02; inhibition [13]: 17%; Ki (Melanocortin receptor 3): 0.8 µM; Ki (Melanocortin receptor 5): 0.17 µM; clearance [14]: 3.5 mL/min/kg; AUC (Mus musculus [15]): 23100 ng·h/mL; IC50 (Melanocortin receptor 4 [16]): 1.1 µM

From ChEMBL document CHEMBL1149513, “Arylpropionylpiperazines as antagonists of the human melanocortin-4 receptor” (Bioorg Med Chem Lett, 2006)
